The values below come from patent US10092566B2, “Composition for controlling a gut immunity and use thereof” (SEOUL NATIONAL UNIVERSITY R&DB FOUNDATION, priority 2013, dated 2018).

In one data set the test system is E. carotovora-pyrE::Tn5. Briefly: Bacterial persistence in the midgut (CFU). The data set is classed as in vivo, Erwinia carotovora. To be noted: coingestion of 1 nM uracil with E. carotovora-pyrE::Tn5; CFU 6 hours after ingestion. The protocol: To measure gut sustainability of E. carotovora strains (E. carotovora, E. carotovora-pyrE::Tn5, and E. carotovora-pyrE::Tn5-pyrE), a 5% sucrose solution containing approx. 10^10 cells of E. carotovora strains were orally administered to female adult Drosophila (5 to 6 days old) for 2 hours. Midguts were dissected at 6 hours after ingestion. Midguts, posterior guts, and crops of which the surfaces were sterilized were homogenized and diluted accordingly. These were smeared on a Luria-Bertani agar plate, and some of colony-forming units (CFUs) were obtained from each midgut. During the recovery experiment, the coingestion of E. carotovora-pyrE::Tn5 (+uracil) and 1 nM of uracil or the expression of an E. carotovora-pyrE::Tn5 strain, which was genetically recovered by the expression of functional pyrE genes (+pyrE), was utilized.

In a further data set the test system is IMD pathway. Briefly: Gut IMD pathway activation (Cec expression, qPCR). In kind it is in vivo, Drosophila. To be noted: uracil 20 nM, 4 hours. On the procedure: Fluorescent RT-PCR was conducted to quantify gene expression and double-stranded DNA dye and SYBR green (Perkin Elmer, Waltham, Mass., USA) were used. To detect target gene trascriptomes, Cecropin (Sense, 5′-ATGAACTTCTACAACATCTTCG-3′ (SEQ ID NO: 5); Antisense, 5′-GGCAGTTGCGGCGACATTGGCG-3′ (SEQ ID NO: 6)), Diptericin (Sense, 5′-GGCTTATCCGATGCCCGACG-3′ (SEQ ID NO: 7); Antisense, 5′-TCTGTAGGTGTAGGTGCTTCCC-3′ (SEQ ID NO: 8)), and DUOX (Sense, 5′-GCTGCACGCCAACCACAAGAGACT-3′ (SEQ ID NO: 9); Antisense, 5′-CACGCGCAGCAGGATGTAAGGTTT-3′ (SEQ ID NO: 10)) were used, and as a control group, Rp49 (Sense, 5′-AGATCGTGAAGAAGCGCACCAAG-3′ (SEQ ID NO: 11); Antisense, 5′-CACCAGGAACTTCTTGAATCCGG-3′ (SEQ ID NO: 12)) was used. SYBR green analysis was conducted by an ABI PRISM 7700 system (PE Applied Biosystems, Foster City, Calif., USA) according to the manufacturer's instructions. All of the samples were repeated three times and analyzed, and a detected amount of mRNA was normalized with mRNA in the control group. Normalized data was used to quantify the relative amount of mRNA according to cycling threshold analysis. Targeted gene expression was expressed as the relative amount of expression.

The next data set deals with DUOX. Briefly: In vivo ROS detection in gut epithelia (HOCl-specific R19S staining, ratio of ROS-positive guts). Also on record: species or system Drosophila. The source says: R19S, a recently developed HOCl-specific rhodamine-based dye, was used in this experiment (Chen et al., Chem Commun (Camb) 47, pp. 4373-4375, 2011). R19S was purchased from Futurechem (Seoul, South Korea). […]
Furthermore, to measure the basal level of ROS in germ-free animals, Drosophila monoassociated with each bacterium (C. intestini, A. pomorum, L. plantarum, G. morbifer, G. morbifer-carA::Tn5, L. brevis, or L. brevisΔcarA) were experimented with as disclosed above. A 5% sucrose solution containing 10 μM of R19S was orally administered to the monoassociated Drosophila (13 days old) for 90 minutes.
Following the R19S ingestion, the midguts were dissected and fixed with 4% formaldehyde. The level of HOCl (ROS level) was visualized by LSM700 confocal microscopy (Carl Zeiss).
For all of the experiments, R19S-positive guts in each animal group (n=approx. 20) were measured by each independent experiment, and data was indicated by at least three repeated and independent experiments. The number of R19S-positive guts in regard to the total numbers of gut samples was indicated as the ratio of ROS-positive guts.

Another data set relates to gut cells. To be noted: in vivo.
The next data set relates to p38. Description: p38 activation by phospho-p38 immune staining of midgut. In kind it is in vivo, Drosophila. To be noted: uracil 20 nM for 2 hours. The protocol:
To examine uracil-induced p38 activation, a 5% sucrose solution containing 20 nM of uracil was orally administered to genetically different adult Drosophila (5 to 6 days old) for 2 hours. Midguts were dissected in PBS and fixed with 4% paraformaldehyde for 15 minutes. The midguts were washed three times with PBS containing 0.1% of Triton X-100 for 5 minutes and were cultured in the above solution with additional 5% cow blood serum albumin for 1 hour. Next, the sample was cultured with additional phospho-specific anti-p38 antibody (1:500 dilution; Millipore, Milford, Mass., USA) at 4° C. for 16 hours. The sample was washed five times with PBS containing 0.1% Triton X-100 for 5 minutes and cultured at room temperature for 20 minutes after adding secondary antibodies (1:500 dilution; Alexa Fluor 568 goat anti-rabbit IgG; Invitrogen, Carlsbad, Calif., USA). After washing the sample three times with PBS containing 0.1% Triton X-100 for 5 minutes, the sample was mounted with mounting buffer solution (Vectorshield, Vector Laboratories Inc., Burlingame, Calif., USA) and was analyzed by LSM 700 confocal microscopy (Carl Zeiss, Oberkochen, Germany)

The structures appear in SMILES notation. Where only a bound is given, the exact number is not on record here.

Procedure for gut cells: To measure cell apoptosis in gut cells caused by a long-term exposure to uracil, genetically different germ-free adult Drosophila (5 to 6 days old) were maintained on the standard corn meal agar media with a supplemental 1 nM of uracil for 20 days.
Midguts of female Drosophila (20 days old) collected above were used for the analysis of cell apoptosis. Midguts were dissected in PBS, and cell apoptosis analysis was conducted by terminal deoxynucleotidyl transferase (TdT)-mediated dUDP nick end labeling method as disclosed in the previous research (Ryu et al., Science 319, pp. 777-782, 2008).
The cell apoptotic index was indicated by dividing the number of apoptotic cells with respect to the total number of cells and multiplying the value by 100.

Consider `O=c1cc[nH]c(=O)[nH]1` [uracil], for which the “prolonged midgut persistence of URA− pathogens” value with E. carotovora-pyrE::Tn5 was “abolished”. Besides, the “gut IMD pathway activation leading to AMP production” value in the data set on IMD pathway was “unable to activate the gut IMD pathway”. For the same molecule, the “infection-induced gut ROS after coingestion of uracil with URA− strain” value in the data set with DUOX (E. carotovora-pyrE::Tn5 plus uracil) was “normal level of infection-induced ROS”. In addition, the “lowest concentration inducing gut ROS generation” value with DUOX (dose-dependent analysis, oral ingestion, adult Drosophila) was not below 10 pM. Moreover, the “ROS-inducing ability / DUOX activation” value in the data set with DUOX (nucleobases and pyrimidine analogs, 20 nM each, ingestion for 15 minutes) is recorded as “capable of activating DUOX”. Further, the “gut ROS generation” value with DUOX (uracil 20 nM for 1.5 hours, PLCβ-DUOX signaling-dependent (absent in DUOX-RNAi, PLCβ−/−)) is given as “generation of large amounts of gut ROS”. Moreover, in the data set with DUOX (uracil 20 nM for 1.5 hours, control vs Gαq−/− flies), the “requirement of Gαq for uracil-induced ROS generation” value is “required”. The “uracil-induced ROS generation in presence of commensal bacteria in the gut” value in the data set on DUOX (uracil 20 nM, 1.5 hours, GF flies monoassociated with C. intestini, A. pomorum or L. plantarum) is recorded as “could not inhibit the ROS-generating ability of uracil”. For the same molecule, the “gut cell apoptosis after long-term ingestion of uracil” value in the data set with gut cells is listed as “Extensive apoptosis in gut cells”. In addition, in the data set with p38, the “p38 MAPK activation” value was “p38 MAPK activation”.
